“Also recorded” adds a separate entry of the source.
What was measured:
[1] = tested on: p53 and acetylated p53 in NCl H460 cancer cells; conditions: etoposide (10 μM); cited from earlier work
[2] = tested on: p53 and acetylated p53 in MCF-7 breast adenocarcinoma cells; assay: Expression of p53 and acetylated p53 in MCF-7 cells treated with compound, with etoposide (FIG. 3); format: cell-based
Description: Additionally, cells were treated with the same compounds in the presence of the genotoxic agent etoposide.
(§1) Further evidence to support the selective targeting of SIRT1 and SIRT2 by these analogs came from studies in cells.

[3] = tested on: acetylated α-tubulin in H1299 cells; assay: Acetylated tubulin levels in H1299 cells treated with compound and Trichostatin A (FIG. 2); format: cell-based; conditions: H1299 cells, with Trichostatin A
Excerpt: Total tubulin was used as a loading control.
as §1

[4] = biological target: T1, SIRT1 (Homo sapiens, UniProt Q96EB6); assay: In vitro inhibition of SIRT1 by cambinol analogs
T1 sequence (Q96EB6 1-747): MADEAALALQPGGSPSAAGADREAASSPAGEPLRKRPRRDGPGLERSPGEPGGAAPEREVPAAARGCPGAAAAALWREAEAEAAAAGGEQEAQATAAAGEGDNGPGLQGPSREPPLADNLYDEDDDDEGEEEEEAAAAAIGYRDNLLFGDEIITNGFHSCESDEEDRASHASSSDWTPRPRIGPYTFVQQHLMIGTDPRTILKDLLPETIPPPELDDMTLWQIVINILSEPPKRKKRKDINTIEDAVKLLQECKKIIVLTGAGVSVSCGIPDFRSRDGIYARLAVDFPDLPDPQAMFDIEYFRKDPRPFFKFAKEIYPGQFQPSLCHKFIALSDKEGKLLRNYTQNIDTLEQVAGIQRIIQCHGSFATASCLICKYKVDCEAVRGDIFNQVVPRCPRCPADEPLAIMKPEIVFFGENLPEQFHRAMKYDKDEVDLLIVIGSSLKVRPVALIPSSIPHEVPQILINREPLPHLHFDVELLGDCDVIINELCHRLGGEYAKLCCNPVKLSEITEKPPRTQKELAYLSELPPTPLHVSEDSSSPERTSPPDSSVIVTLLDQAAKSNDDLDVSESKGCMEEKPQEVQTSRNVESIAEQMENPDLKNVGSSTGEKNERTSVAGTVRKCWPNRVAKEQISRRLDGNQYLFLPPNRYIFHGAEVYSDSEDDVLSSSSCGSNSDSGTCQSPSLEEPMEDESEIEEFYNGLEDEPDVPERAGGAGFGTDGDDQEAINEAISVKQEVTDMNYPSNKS

[5] = biological target: T2, SIRT2 (Homo sapiens, UniProt Q8IXJ6); assay: In vitro inhibition of SIRT2 by cambinol analogs
T2 sequence (Q8IXJ6 1-389): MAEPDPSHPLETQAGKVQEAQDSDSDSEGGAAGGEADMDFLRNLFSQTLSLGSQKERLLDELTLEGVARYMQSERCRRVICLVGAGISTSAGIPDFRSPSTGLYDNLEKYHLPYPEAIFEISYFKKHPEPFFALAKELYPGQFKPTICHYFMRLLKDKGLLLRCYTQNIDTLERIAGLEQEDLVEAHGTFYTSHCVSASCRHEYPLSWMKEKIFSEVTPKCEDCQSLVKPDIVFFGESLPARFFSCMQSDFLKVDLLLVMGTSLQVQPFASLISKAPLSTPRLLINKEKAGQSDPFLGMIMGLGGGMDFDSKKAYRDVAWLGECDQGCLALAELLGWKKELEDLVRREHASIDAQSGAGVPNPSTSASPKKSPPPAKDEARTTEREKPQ

[6] = in the presence of etoposide (10 μM)

improvement in activity against SIRT1 compared with cambinol (1) ([4]; from IC50 values) | IC50 ([4]; read-out: IC50 SIRT1, repeated at least two times) | inhibition at 60 µM ([4]; read-out: Inhibition at 60 μM ± SE (%) SIRT1) | melting point | activity against SIRT2 in words ([5]; compared with cambinol (1)) | inhibition at 60 µM ([5]; read-out: Inhibition at 60 μM ± SE (%) SIRT2) | SMILES | levels of p53 and acetylated p53 [1] | concentration at which maximal p53 levels were observed [2, 6] | levels of p53 [2, 6] | acetylation of tubulin [3] | selectivity for SIRT1 over SIRT2 in words ([4]; in vitro) | levels of p53 acetylated at lysine 382 ([2]; in the presence of etoposide, compared to cambinol (1))
 |  |  |  |  |  | O=c1[nH]c(=S)[nH]c(-c2ccccc2)c1Cc1c(O)ccc2ccccc12 [Compound 1, 5-(2″-Hydroxy-naphthalen-1-ylmethyl)-6-phenyl-2-thioxo-2,3-dihydro-1H-pyrimidin-4-one, reference compound] | higher levels of p53 and acetylated p53 | 50 µM | increased |  |  | 
4 fold | 12.7 ± 2 µM | 82.3 ± 1% | 282 to 287 °C | relative lack of activity | 9.4 ± 1% | O=c1[nH]c(=S)[nH]c(-c2ccc(Br)cc2)c1Cc1c(O)ccc2ccccc12 [Compound 6b, 6-(4-Bromo-phenyl)-5-(2-hydroxy-naphthalen-1-ylmethyl)-2-thioxo-2,3-dihydro-1H-pyrimidin-4-one] |  |  | increased p53 levels | did not lead to an increase in acetylation of tubulin | relatively selective inhibition of SIRT1; also recorded: selective SirT1 inhibitor | clear increase in potency compared to cambinol (1)
